# Laboratory results: patent US12221417B2, “Salt of omecamtiv mecarbil and process for preparing salt” (Cytokinetics, Inc., priority 2013, dated 2025)
# Counter-ions that a name gives are not always drawn.
# Experiments:
# [1] = Dynamic vapor sorption (moisture balance); type: physicochemical
# Method: Moisture balance data was collected using a VTI SGA 100 symmetrical vapor sorption analyzer. Relative humidity was varied in increments of 5%, between 5% and 95% relative humidity during the adsorption run, and from 95% to 5% relative humidity during the desorption run. Equilibrium criteria was set at 0.01% weight change in 1 minute with a max equilibrium time of 180 minutes. Approximately 1-15 mg of sample was used.
# physchem = conditions: pH 3.5, water, thermodynamic from solid
# [2] = pH 3.5
# [3] = Water solubility (24 hour slurry experiment); conditions: pH 3.8, water, thermodynamic from solid
"weight change, dynamic vapor sorption ([1]; above 15% relative humidity, upon reaching 95% relative humidity) [%]","weight loss, dynamic vapor sorption ([1]; between about 30% and about 5% RH)","total weight gain, dynamic vapor sorption ([1]; between about 40% and about 95% relative humidity)",hygroscopicity ([1]; dynamic vapor sorption),phase change after the vapor sorption experiment ([1]; examined by XRPD),solubility at 24 h (physchem) [mg/mL],phase change during the slurry experiment [2],solubility [3] [mg/mL],Structure (SMILES)
~1.0,about 2.7 wt %,about 0.55 wt. %,non-hygroscopic,No phase change,> 40,no phase change,–,"COC(=O)N1CCN(Cc2cccc(NC(=O)Nc3ccc(C)nc3)c2F)CC1 [Form A, omecamtiv mecarbil dihydrochloride hydrate]"
–,–,–,–,–,–,–,> 40,"COC(=O)N1CCN(Cc2cccc(NC(=O)Nc3ccc(C)nc3)c2F)CC1 [dihydrochloride salt, omecamtiv mecarbil dihydrochloride hydrate]"
